According to patent US9408891B2, “Methods of using gelsolin to treat or prevent bacterial sepsis” (priority 2003, dated 2016):
“Also recorded” adds a separate entry of the source. Ends that are not written are not given here. * marks the point of attachment. RhodamineB = CCN(CC)c1ccc2c(-c3ccccc3C(=O)*)c3ccc(=[N+](CC)CC)cc-3oc2c1

Legend:
[1] = biological target: gelsolin (Homo sapiens, UniProt P06396); test: Actin severing activity of gelsolin (50 nM) with LTA or lysolipids; assay type: biochemical; conditions: for inhibition of gelsolin by lysolipids: lipid below 1 μM
Description: (§1) The tested gelsolin concentration was 50 nM; LTA ranged from 0-50 μM; Pyrene-F-actin was 0.3 μM. Recording changes in fluorescently-labeled (rhodamine B-labeled) gelsolin peptide PBP10 (10 μM), indicates a specific interaction between gelsolin and LTA.

[2] = biological target: T1, recombinant human gelsolin (rhGLS) (Homo sapiens, UniProt P06396); test: Actin filament severing activity of purified gelsolin (pyrene F-actin depolymerization); assay type: biochemical; conditions: molar basis comparison
T1 construct: purchased Biogen IDEC, Inc., Cambridge, Mass; host or cells: E. coli
Description: To determine gelsolin's severing activity, rates of fluorescence decrease were evaluated during depolymerization. Monomeric G-actin was prepared from an acetone powder of rabbit skeletal muscle according to previously published methods (Spudich et al., J. Biol. Chem […]). The non-polymerizing solution contained 2 mM TRIS, 0.2 mM CaCl2, 0.5 mM ATP (adenosine triphosphate), 0.2 mM DTT (dithiothreitol) pH 7.4. Actin was polymerized by adding 150 mM KCl and 2 mM MgCl2 to the G-actin solutions and incubating for 1 hour at room temperature.
For F-actin severing assays, in general, a small volume (typically 5 μl) of the gelsolin composition is added to a similar volume of pyrene-labeled F-actin at a concentration adjusted to provide an actin:gelsolin ratio of approximately 10:1 (typically 1 μM gelsolin and 10 μM actin). This mixture is the diluted to 0.5 μM in a larger volume of F-actin buffer, and the filament severing efficiency is calculated from the initial slope of the fluorescence change. This reflects the rate of depolymerization that, in turn, is proportional to the number of cuts made by gelsolin. The LPS/gelsolin reaction can be done under any ionic condition, and the addition to F-actin requires the presence of […] Ca^2+ to activate the gelsolin. […] The actin nucleation reaction is similar except that in the latter case, the gelsolin/LPS mixture is added to a more dilute solution of G-actin (typically, 1 or 2 μM) in low ionic strength buffer followed immediately by addition of 150 mM KCI and 2 mM MgCl2 to initiate polymerization.
(§2) As shown, recombinant human gelsolin (rhGLS) (FIG. 4A) and blood serum (FIG. 4B) severing activity was measured in 0.4 μM pyrene-labeled F-actin samples (polymerized with 50% pyrene-labeled G-actin), after adding gelsolin (16 nM)/serum (2.5 μl), or their combination with one of the following: LPS (from different species), PIP2 (phosphatidyl-inositol-4,5-bisphosphate), LPA (lysophosphatidic acid), lipid A (the LPS derivative lacking polysaccharide) or PS (phosphatidylserine). The fluorescence intensity of F-pyrene actin was then monitored for 10 minutes, and the severing activity was calculated based on decreasing fluorescence. Severing activity was determined from a decrease in rate of fluorescence during depolymerization, and the depolymerization rate was calculated from the slope of the early decrease in fluorescence.

[3] = test system: human platelets; test: Collagen-induced aggregation of gel-filtered platelets; assay type: cell-based
Description: To isolate human platelets, blood from healthy volunteers was collected in acid-citrate dextrose. Platelet-rich plasma obtained after centrifugation (15 minutes, 110×g) at room temperature, was supplemented with apyrase (0.5 U/ml) (Sigma-Aldrich) to degrade excess nucleotides. Platelets were sedimented by centrifugation (10 minutes, 1000×g), suspended in buffer A (139 mM NaCl, 2.8 mM KCl, 0.8 mM MgCl2, 0.8 mM KH2PO4, 8.9 mM NaHCO3, 10 mM HEPES, 5.6 mM glucose, 0.3% albumin, pH 7.35) and filtered on a 50 ml column of Sepharose 2B to obtain gel-filtered platelets (GFP).
Platelet aggregation was initiated by adding collagen (10 μg/ml) (Chrono-Log Corp., Havertown, Pa.). Platelet aggregation was monitored using a Chronolog Lumi-Aggregometer (Chrono-Log Corp.). Changes in light transmission were recorded for 10 minutes, using a PowerLab/200 instrument and MacLab Chart program Version 3.2. When required before activation, the platelet suspension was reacted with LPS, or LPS-preincubated with the SEQ ID No:1 peptide (QRLFQVKGRR).

[4] = Neutron scattering of LPS with gelsolin peptide; assay type: physicochemical; conditions: preliminary neutron scattering
From the text: The molecular structure of LPS and its complexes with proteins can be measured at nm resolution by X-ray and neutron scattering, as well as by electron and atomic force microscopy.
At present, the calculated diameter (36 nm) is greater than that which has been previously reported for pure LPS micelles, and the difference in size may reflect another structural feature. In additional experiments with more variations in gelsolin/LPS or peptide, LPS ratios will reveal if there are significant changes in LPS particle structure when these peptides bind LPS.

[5] = test system: NF-κB translocation in rat primary astrocytes; test: NF-κB translocation to the nucleus in astrocytes; assay type: cell-based; conditions: astrocytes, 2 hour; LPS 2 μM or TNF-α 10 ng/ml
Description: Rat primary astrocytes were obtained from prenatal rats and maintained for 14 days in culture before use. Embryos (E17-E19) were removed by caesarian section from a Sprague-Dawley rat and the hippocampi were surgically removed. The tissue was digested in trypsin/DNAse at 37° C., centrifuged (1000×5 min) and filtered to derive suspensions from each pup. Cells were grown in an incubator at 37° C. and 5% CO2 in DMEM (Dulbecco's Modified Eagle's Medium; BioWhittaker/Cambrex BioScience, East Rutherford, N.J.), supplemented with Ham's F12 (Sigma-Aldrich, St. Louis, Mo.) and 5% fetal bovine serum (FBS) (Hyclone, Logan, Utah) for 7 days, followed by an additional 7 days in Neurobasal medium (Gibco, Grand Island, N.Y.) also supplemented with 5% FBS, 2 mM l-glutamine, 50 μg/ml streptomycin and 50 U/ml penicillin. In each experiment, the medium was changed to serum-free at 6-12 hours prior to addition of LPS, TNF-α, or gelsolin.
HAECs and astrocytes cultures were incubated for 10 minutes in medium containing 10 μg/ml LPS alone, or LPS that had been pre-incubated with 0.16 mg/ml of human gelsolin. Cultures were fixed with ice-cold methanol and immunostained for F-actin with fluorescein isothiocyanate (FITC)-labeled phalloidin (Molecular Probes, Eugene, Oreg.). In astrocyte cultures, NF-κB translocation was manipulated by a 2 hour incubation in serum-free medium containing one of the following: 10 ng/ml TNF-α, 10 μg/ml LPS alone, or LPS that had been preincubated with 0.16 mg/ml human gelsolin. Location of transcription factor nuclear factor-kappaB (NF-κB) was observed using a monoclonal antibody to NF-κB (Molecular Probes), and cell nuclei were detected by counter-staining with 4′, 6-diamidino-2-phenylindole dihydrochloride (DAPI) (Sigma).

[6] = biological target: T2, PBP10 (PIP2-binding site of gelsolin) (Homo sapiens, UniProt P06396); test: Rhodamine-B fluorescence change of gelsolin peptide PBP10 after adding lipids; conditions: for fluorescence quenching / change of rhodamine-B peptide: 2 μM peptide, buffer A pH 7.0, 15 min
T2 construct: made in house; host or cells: solid phase peptide synthesis
Description: (§3) Therefore, to determine changes of gelsolin OD at 280 nm, different amounts of LPS, LPA and PS were added to recombinant human gelsolin (rhGLS) solutions and OD emission spectra were recorded using spectrophotometer Genesys 6 (Thermo-Spectronic, USA).
Interaction of LPS and gelsolin was examined using rhodamine B- and pyrene-labeled SEQ ID No:1 (QRLFQVKGRR). The effect of LPS on gelsolin was determined in terms of the rhodamine-B fluorescent changes of PBP10 peptide in the presence of different lipids (FIG. 1C); and the fluorescence emission spectra of pyrene-labeled SEQ ID No:1 (2 μM) in the presence of LPS from Escherichia coli (1.2 μM), PIP2 (0.82 μM) and LPA (0.82 μM) (FIG. 1D) The results using the pyrene-derivatized gelsolin peptide confirmed the LPS induced clustering of the peptide with resulting excimer fluorescence of the pyrene group, which was evident as a large increase in fluorescence emission at 480 nm.
as §1

[7] = test system: human neutrophils / human aortic endothelial cells (HAEC); test: Neutrophil adhesion to LTA-stimulated HAEC; assay type: cell-based; conditions: LTA 10 μg/ml
From the text: To investigate whether gelsolin can prevent gram-positive bacterial inflammation, the effect of LTA-mediated activation of human neutrophils was examined. Neutrophils were selected because their adhesion to human aorta endothelial cells (HAEC) is a hallmark of inflammation.
Neutrophils were isolated from human blood using the endotoxin-free Lympholyte-poly kit (Cedarlane, Ontario, Canada). The isolated neutrophil cells were resuspended in RPMI media. […] To quantify the adhesion, the neutrophils were labeled with calcein-AM (5 μM for 30 minutes at 37° C.).

[8] = biological target: T3, gelsolin activity in whole human serum (Homo sapiens, UniProt P06396); test: Actin filament severing activity of whole human serum; assay type: biochemical; conditions: larger amounts needed than with pure gelsolin
T3 construct: from tissue; host or cells: whole human serum (2.5 µl)
Description: as §2

[9] = biological target: T1, recombinant human gelsolin (rhGLS); test: Change of gelsolin OD at 280 nm after adding lipids; assay type: binding; conditions: OD 280 nm
Description: as §3

[10] = Solid phase binding of 3H-LPS to peptide-coated wells; parameters: species or system Salmonella minnesota; conditions: for binding of 3H-LPS to peptide-coated surfaces: solid phase, wells coated with peptide
Description: To provide chemical and functional evidence that gelsolin binds LPS through its lipid-binding domain, a solid phase assay was conducted in which radiolabeled LPS was added to wells coated with different amounts of rhodamine-B-labeled-SEQ ID No:1 (rhodamine-B-QRLFQVKGRR, derived from the PIP2-binding site of gelsolin and termed “PBP10”), or to a truncated peptide (rhodamine-B-QRL), in the absence or presence of unlabeled LPS, respectively.
Tritium-labeling of LPS was done by a modification of the procedure of Watson and Riblet (Watson et al., J. Immunol 114:1462-8 (1975)). A sample (2 mg) of LPS from Salmonella minnesota Re595 (Sigma Chemical Co., St. Louis, Mo.) was oxidized (150 minutes, 20° C.) with sodium periodate (3×10^−2 M). After destruction of the oxidant with 1.0 M ethylene glycol, aldehyde groups were reduced (18 hours at 4° C.) with an ice-cold solution of NaB [^3H]4 (0.46 GBq, 481 GBq/mmole, wherein GBq refers to a unit of radioactivity) (Amersham-Pharmacia Biotech, Buckinghamshire, England) in 200 μl of ice-cold borate buffer (0.05 M, pH 9.5). Excess sodium borohydride was destroyed with 5 μl of acetic acid. After two washings (centrifugation at 100,000×g for 15 minutes) in 400 μl of an ice-cold water-ethanol mixture (1:1 by vol.), the radiolabeled [^3H]-LPS (9×10^5 cpm/μg; 2×10^3 cpm/pmole) was stored at −20° C. until used.
To measure [^3H] labeled-LPS-binding, polystyrene ELISA-type microplates (96 wells) were coated with PBP10 or rhodamine-B-QRL (RhB-QRL) by incubation for 18 hours at 4° C. with a solution (100 μl, 500 pmole/well) in saline. After three washings with 100 μl saline, the wells were then incubated at room temperature with [^3H]-LPS (360,000 c.p.m.), in the presence or absence of unlabeled LPS (20 μg/well), in a binding medium (100 μl) containing bovine serum albumin (50 μg) in saline. After 3 hours of incubation, the plates were washed three times with 100 μl saline washes, and the remaining bound radioactivity was measured.

T3 sequence (P06396 28-782): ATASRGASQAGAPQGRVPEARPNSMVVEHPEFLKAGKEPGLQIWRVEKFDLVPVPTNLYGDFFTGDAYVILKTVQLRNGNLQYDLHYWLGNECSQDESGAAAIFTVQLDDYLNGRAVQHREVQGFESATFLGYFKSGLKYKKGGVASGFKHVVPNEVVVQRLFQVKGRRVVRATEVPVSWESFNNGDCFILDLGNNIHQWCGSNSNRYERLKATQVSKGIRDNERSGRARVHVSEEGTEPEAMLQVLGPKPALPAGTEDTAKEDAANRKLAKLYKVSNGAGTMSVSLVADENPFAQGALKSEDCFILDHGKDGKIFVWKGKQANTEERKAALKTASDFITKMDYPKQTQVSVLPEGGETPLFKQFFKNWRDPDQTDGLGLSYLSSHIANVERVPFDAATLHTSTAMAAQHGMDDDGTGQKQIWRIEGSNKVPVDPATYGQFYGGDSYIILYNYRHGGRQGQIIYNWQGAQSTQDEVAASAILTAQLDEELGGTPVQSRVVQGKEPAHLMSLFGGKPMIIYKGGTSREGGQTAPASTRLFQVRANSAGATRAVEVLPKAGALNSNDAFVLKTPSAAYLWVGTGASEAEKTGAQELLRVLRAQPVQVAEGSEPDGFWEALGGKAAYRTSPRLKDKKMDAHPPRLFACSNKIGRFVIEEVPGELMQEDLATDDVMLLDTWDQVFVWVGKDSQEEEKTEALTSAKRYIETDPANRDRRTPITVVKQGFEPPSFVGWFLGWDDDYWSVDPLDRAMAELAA
Chain of gelsolin (P06396 28-782): as above
T1 sequence (P06396 28-782): as above

CCCCCCCCCCCCC/C=C/[C@@H](O)[C@@H](N)COP(=O)(O)OCC[N+](C)(C)C [SPC, Sphingosylphosphocholine]
inhibition of gelsolin by lysolipids [1]: at least as strongly as lysophosphatidic acid (LPA); also recorded: also inhibit gelsolin

Lipid A
inhibitory effect on severing activity of purified gelsolin [2]: weaker but still significant inhibitory effect; also recorded: weaker, but detectable inhibition; also recorded: weaker, but still significant inhibitory effect

QRLFQVKGRR (peptide fragment of gelsolin) [gelsolin SEQ ID No:1, Gelsolin residues 160-169 peptide]
reversal of LPS inhibition of collagen-induced platelet activation ([3]; peptide added to LPS before addition to platelets, collagen 10 μg/ml): restored, in a peptide concentration-dependent manner | effect of peptide alone on collagen-mediated platelet functions ([3]; without LPS): had no effect on collagen-mediated platelet functions | effect of peptide on calculated diameter of LPS [4]: small, but significant increase in calculated diameter of LPS

TNF-α
induction of NF-κB translocation to the nucleus [5]: caused NF-κB translocation to the nucleoplasm

lipoteichoic acid [LTA]
binding to PBP10 judged by changes in PBP10 fluorescence ([6]; PBP10 10 μM): approximately the same avidity as PIP2; also recorded: approximately the same efficiency as PIP2; also recorded: binds to the PIP2-binding site within the PBP10 peptide | inhibition of gelsolin's actin severing activity ([1]; LTA 0-50 μM, pyrene-F-actin 0.3 μM): nearly as well as LPS does; also recorded: potent inhibitor | stimulation of neutrophil binding to the endothelial surface [7]: stimulated binding of calcein AM-labeled neutrophils

lysophosphatidic acid [LPA]
inhibitory effect on severing activity of purified gelsolin [2]: strongly inhibited | inhibition of gelsolin activity in whole human serum [8]: much less effective in serum than in pure solution; also recorded: appeared to lack its effect in serum | effect on absorbance of gelsolin [9]: diminished the absorbance of gelsolin

phosphatidylinositol-4,5-bisphosphate [PIP2]
fluorescence quenching / change of rhodamine-B peptide [6]: induced identical concentration-dependent fluorescence quenching | inhibition of gelsolin activity in whole human serum [8]: able to inhibit gelsolin activity

platelet activating factor [PAF]
inhibition of gelsolin by lysolipids [1]: do not inhibit gelsolin

rhodamine-B-QRL
fluorescence quenching / change of rhodamine-B peptide [6]: no fluorescence change | binding of 3H-LPS to peptide-coated surfaces [10]: did not bind LPS

rhodamine-B-QRLFQVKGRR (RhodamineB-QRLFQVKGRR) [PBP10]
reduction of 3H-LPS binding by excess unlabeled LPS ([10]; 5-fold excess of unlabeled LPS): approximately 50% | binding of 3H-LPS to peptide-coated surfaces [10]: saturably bound; also recorded: bound in a saturable manner | inhibition of labeled LPS binding in the presence of excess LPS ([10]; unlabeled LPS 20 μg/well): substantial inhibition
